# Assay results taken from patent publication US8846316B2, “Biomarker for human liver cancer” (Industrial Technology Research Institute, priority 2012, dated 2014).
# Tested on: miR-129-2 expression
# Assay: miR-129-2 expression by qRT-PCR after 5-aza-cytidine treatment of HCC cells
# Format: cell-based, human
# Details: 5 μM 5-azaC for 3 days
# Experimental: Hepatoma cell lines, HepG2, HuH7, J7, Hep3B, Mahlavu and SK-Hep-1 were maintained in Dulbecco's modified Eagle's medium at 37° C. in a humidified, 5% CO2 incubator. Twenty-four hours prior to treatment, HuH7 cells (1×10^5 cells/well) and other hepatoma cells (3×10^5 cells/well) were seeded into 6-well plates. Cells were treated with 5 μM 5-azaC (Sigma) for 3 days. Culture medium was replaced every 24 hours with fresh media containing 5-azaC.
# Total RNA of hepatoma cells and HCC clinical samples was extracted using TRIzol reagent (Invitrogen). cDNA synthesis was performed with Superscript III reverse transcriptase according to the manufacturer's instructions (Invitrogen). Real-time quantitative polymerase chain reaction was performed on the ABI Prism 7000 sequence detection System using the SYBR Green PCR master mix (Applied Biosystems). For analysis of mature miRNA expression, TaqMan miRNA assay system (Applied Biosystems) was used as the manufacturer's manual. The relative expression level was analyzed by the ΔΔCt method, and U6 and RNU44 were used as an internal control.
# In order to evaluate whether miR-129-2 expression was regulated by DNA methylation, the expression level of miR-129-2 between normal liver cells and HCC cells was examined by quantitative reverse transcription PCR.
compound,measurement,setting,value
Nc1ncn([C@@H]2O[C@H](CO)[C@@H](O)[C@H]2O)c(=O)n1 [5-aza-cytidine],miR-129-2 expression level elevated compared with untreated cell,HuH7 cell,2.5 fold
same,miR-129-2 expression level elevated compared with untreated cell,J7 cell,16 fold
